Several values for one entry are separate records, joined by “and”; a condition that tells them apart may be missing. Equal values may be shown once.
Columns and labels:
P19-pSFM 7 cells [1] = experiment: Luciferase activity of pSFM 25 in P19 clones stably integrated with pSFM 7; assay type: cell-based, mouse; conditions: doxycycline at 1 μg/ml, clone 46
Procedure: Stably integrated P19 clones were obtained by using BioRad Gene Pulser II electroporation system. 30 μg DNA electroporated into 10 million cells under following conditions 960 μF and 0.16 kV in a 0.4 cm cuvette (0.4 kV/cm). The next day normal media were replaced with appropriate selection media (300 μg/ml G418).
Selection of a P19 cell line stably integrated with a goosecoid-dependent TET-OFF transactivator P19 cells were electroporated with pSFM 7 (Goosecoid promoter-TET/OFF) linearised with ApaLI and selected for stable integration.
Table 20 showes the luciferase activities of pSFM 25 (TRE luciferase+) shown in counts per second (cps) of transiently transfected in P19-pSFM 7 cells.
Addition of doxycycline at 1 μg/ml reduced luciferase activity from pSFM 25 in this clone by 90 fold. This clone, containing stably integrated pSFM 7 was therefore designated P19-pSFM 7 and used for further testing.

ZF4 cells = experiment: Tet-off system in zebrafish cell culture, EGFP reporter; assay type: cell-based; conditions: doxycycline 0.2 μg/ml, 72 h, pTet-Off + pTRE-EGFP cells
Excerpt: The applicant first tested the functionality of the Tet-off system in zebrafish cell cultures. The cell culture was established using ZF4 cells as previously described (Driever and Rangini, 1993). Cells were transfected with the DNAs using Effectene liposomes (Qiagen) according to the manufacturer's instructions. Cells were initially transfected with pTet-Off and placed under neomycin selection for 1 month. Neomycin-resistant cells were then transfected with pTRE-EGFP, and the selection plasmid pTK-Hyg, and placed under hygromycin selection for two weeks. EGFP expression was determined by examining and counting cells with obvious fluorescence and by examination of cell lysates using a fluorometer. Cells were grown in medium with or without doxycycline (0.2 μg/ml) for 72 h prior to assessment of gene expression, or were rinsed of doxycycline and assessed for reporter gene expression 72 h after removal of doxycycline.

P19-pSFM 7 cells [2] = experiment: Expression patterns of reporter constructs in P19-pSFM 7 cells; assay type: cell-based, mouse; conditions: transfected into P19-pSFM 7 cells
Procedure: Fluorescent and transmitted light images were acquired using a CCD camera with a microscope. […] The luminescence assays were conducted by using a dark 96 well plate was done by Victor2 from Wallac or by Topcount NXT from Can berra Packard.
The first stage for testing blocker constructs is to set up an appropriate cell system to detect expression of reporter constructs. Initially, either pdsRED-N1 (CMV promoter RFP), pSFM 6 (CMV promoter goosecoid cDNA fused to RFP) or pSFM 24 (TRE EGFP) were transfected into P19-pSFM 7 cells to test the expression patterns of the EGFP, RFP and goosecoid-fused to RFP proteins (FIG. 37). […] In these cases, RFP expression fused to goosecid in the nucleus is expected to be inhibited in the presence of an appropriate blocker.

zBMP2 = experiment: Injection of zBMP2 antisense and double stranded DNA constructs into zebrafish embryos; assay type: in vivo; conditions: 100 μg/ml, 1-4 cell stage embryos
Procedure: All the DNA preparations were appropriately linearized and gel purified (Qiaquick Gel Extraction Kit) before injection. Needles were made from borosilicate glass capillaries with filaments (GC100TF-15, Clark Electromedical instruments) using a P-80PC micropipette puller (Sutter Instrument Co.). The needle was back-filled with purified DNA diluted to 100 ng/μl in 1× injection buffer (10×; 50 mM Tris; 5 mM EDTA; 1M KCl, pH7.2) using a hand pulled pipette. Injections were carried out on a dissection microscope fitted with two, 3-dimensional Narshige MN-151 micromanipulators. Embryos were held in place during injection by a hydraulically (mineral oil) driven holding pipette. Injection of DNA solution was facilitated pneumatically using a 3-way foot operated plunge valve (Festo Engineering), connected between the injection needle holder and nitrogen tank. Injection was performed on one-cell stage embryos, unless specifically indicated otherwise. Injected embryos were incubated and reared as described above.
On confirming the ability of in vitro transcribed BMP2 antisense and double stranded transcripts to disrupt larval development, DNA constructs capable of expressing the antisense and double stranded transcripts in vivo were developed and tested. […]

C[C@H]1c2cccc(O)c2C(=O)C2=C(O)[C@]3(O)C(=O)C(C(N)=O)=C(O)[C@@H](N(C)C)[C@@H]3[C@@H](O)[C@@H]21 [doxycycline, reference compound]
reduction of luciferase activity from pSFM 25 (P19-pSFM 7 cells [1]): 90 fold
EGFP gene expression relative to cells not exposed to doxycycline (ZF4 cells): approximately 3%

pSFM 6: goosecoid cDNA fused to red fluorescent protein in pDSRed1-N1
cellular location of reporter expression (P19-pSFM 7 cells [2]): detected in the nucleus

B1: pzBMP2-ds: zBMP2 promoter drives about 800 bp of zBMP2 cDNA designed to fold back as dsRNA (SEQ ID NO:13) (nucleic acid)
DNA: GAATTCATGAGGAACTTAGGAGACGACGGGAACGCAGACCGGCCACAGCGCTTCCTCCTCCGGAACTGACTGATCATGGTCGCCGTGGTCCGCGCTCTCACGGTGCTGTTGCTCGGTCAGGTGTTGCTGGGAGGTGCCGTTGGACTCATTCCCGAGATCGACCGACGGAAATACAGTGATTCGGGGAGACACACACCGGAGCGAACTGATACAAACTTCCTGAACGAGTTTGAGCTACGCTTGCTCAATATGTTCGGATTGAAGCGAAAACCCACCCCAAGCAAATCGGCAGTGGTCCCTCAGTACATGCTGGACTTGTATTATATGCACTCTGAAAACGATGACCCGAACATTCGGCGCCCGAGGAGCACTATGGGAAAACATGTAGAAAGGGCAGCCAGCAGAGCAAACACGATACGAAGTTTTCATCACGAAGAGGCTTTCGAGGCACTGTCCAGCCTGAAAGGAAAAACAACGCAGCAGTTTTTCTTCAACCTTACCTCCATTCCTGTCGACTGCCGATTTGCTTGGGGTGGGTTTTCGCTTCAATCCGAACATATTGAGCAAGCGTAGCTCAAACTCGTTCAGGAAGTTTGTATCAGTTCGCTCCGGTGTGTGTCTCCCCGAATCACTGTATTTCCGTCGGTCGATCTCGGGAATGAGTCCAACGGCACCTCCCAGCAACACCTGACCGAGCAACAGCACCGTGAGAGCGCGGACCACGGCGACCATGATCAGTCAGTTCCGGAGGAGGAAGCGCTGTGGCCGGTCTGCGTTCCCGTCGTCTCCTAAGTTCCTCATCTGCAGCAATTGGATATCAAGCTTATCGATGATGATCCAGACATGATAAGATACATTGATGAGTTTGGACAAACCNCANCTAGAATGCAGTGAAAAAAATGCTTTATTTGTGAAATTTGTGATGCTATTGCTTTATTTGTAACCATTATAAGCTGCAATAAACAAGTTAACNACAACAATTGCATTCATTTTATGTTTCAGGTTCAGNGGGAGGTGTGGGAGGTTTTTTAAAGCAAGTAAAACCTCTNCAAATGTGGTATGGCTGATTATGATCCTCTAGATCAGATCCACTAGTTCTAGAGCGGCCGCCACCGCGGTGGAGCTC
modifications: Blocker Molecule
Number Deformed (zBMP2): 21 and 22
mortality, percentage (zBMP2): 14.3% and 16.5%

From US20050071891A1, “Repressible sterility of animals” (priority 1999, published 2005)
